Measurements from US20260274838A1 (PURDUE RESEARCH FOUNDATION, priority 2023, published 2026).
“Also recorded” adds a separate entry of the source.

Tests used:
hSTING = molecular target: T1, hSTING (Homo sapiens, UniProt Q86WV6); experiment: STING based fluorescence polarization assay (F-c-di-GMP probe displacement); type: binding; details: 20 μM compound, 50 nM probe, 10 μM STING, 5 minutes; compared to HSD1077
T1 construct: SUMO; made in house; host or cells: E. coli Rosetta 2 (pLysS)
Experimental: As a preliminary screen, 20 μM of compounds and 50 nM of the probe were incubated with 10 μM of STING for 5 minutes prior to evaluation of fluorescence anisotropy.
50 nM of 2′-Fluo-AHC-c-diGMP (Biolog) was incubated with 10 μM hSTING and 20 μM of screening compounds in dimethyl sulfoxide (DMSO) for 5 minutes in 1× Phosphate buffered saline at room temperature. […] Anisotropy was normalized via equating measurements with 0 μM hSTING to zero. […] Anisotropy was converted to a fraction bound by F-c-di-GMP using the following equation: […]
wherein r refers to the anisotropy value at 10 μM hSTING concentration upon compound addition, rfree refers to the anisotropy value of unbound fluorophore, and Q refers to the ratio of fluorescence intensities between bound and free fluorophore.

RAW ISG Blue cells = experiment: Detection of IRF activation in RAW ISG Blue reporter cells (SEAP, QUANTI-Blue); type: cell-based, murine
Source text: To understand possible modulatory effects of compound HSD1077 on the cGAS-STING axis, the quantification of type 1 interferon expression in-cellulo upon compound HSD1077 treatment, investigated via a commercially available murine macrophage cell line RAW ISG Blue, which express secreted embryonic alkaline phosphatase (SEAP) under the control of an interferon-stimulated gene 54 (ISG54), inducible promoter. Upon the stimulation of pathways, such as cGAS-STING, which activate type 1 interferon production, SEAP would be expressed and can be quantified using a chromogenic detection substrate Quantiblue™. […] Excitedly, concentrations as low as 20 nM caused a noticeable decrease in interferon expression (FIG. 8).
After which, media from each respective well was collected for estimation of IRF activation via SEAP colorimetric assay via QUANTI-blue reagent (Invivogen) as per manufacturer protocols, using a clear 96 well flat bottom plate. 20 μL of the media obtained in each individual well was incubated with 180 μL of QUANTI-Blue™ Solution for 6 hours at 37° C. Absorbance (630 nm) of each well was quantified via Biotek Cytation 5 multi-mode reader.

RAW ISG Blue macrophages = experiment: Interferon-β mRNA levels in RAW cells via qPCR; type: cell-based, murine; details: pre-treatment 6 hours, then 100 μM cGAMP 3 hours; vs DMSO-treated cells stimulated with cGAMP
Experimental: FIG. 8B illustrates RAW ISG cells were pre-treated with either compound HSD1077 or compound H-151 as a positive control for 6 hours and subsequently stimulated with 100 μM of cGAMP for 3 hours for induction of Interferon-β. mRNA levels were quantified by RT-PCR. Gene expression was normalized with β-actin. Experiments were performed in two biological replicates. Error bars indicate the error of the mean of two independent experiments.
As a secondary analysis, mRNA levels of murine Interferon-β were also quantified via quantitative PCR (qPCR), upon cGAMP stimulation on RAW macrophages with or without compound HSD1077 pre-treatment.
1×10^6 cells were seeded in 6 well plates and incubated for 24 hours to allow for adherence. […] Cells were subsequently harvested, and RNA extraction was performed via the use of TRIzol reagent (Thermo-fisher). 1 μg of RNA harvested from each sample was used for cDNA synthesis using random hexamers, dNTPs, and superscript II reverse transcriptase (Thermo-fisher). […] The forward and reverse primers for the relative quantification of Interferon-β and β-actin were used as reported in Wiser C, Science Reports, 2020, 10, 1-11 and Wang M, ACS Chemical Biology, 2021, 16, 1663-1670, which are hereby specifically incorporated by reference for its teachings regarding the same.

Raw ISG cells = experiment: Western blotting of p-STING and p-IRF3 in Raw ISG cells; type: cell-based, murine; details: 5 μM for 4 hours, then 100 μM cGAMP 3 hours; vs DMSO+cGAMP
THP-1 dual cells = experiment: Detection of IRF activation in THP-1 dual reporter cells (Lucia luciferase, QUANTI-Luc), cGAMP stimulation; details: then 2'-3' cGAMP 24 hours
Experimental: Using THP-1 dual cell lines (Invivogen) featuring a luciferase gene under the control of an ISG54 inducible promoter, relative quantifications of type 1 interferon expression could be achieved through luciferase detection upon cGAS-STING pathway induction.
1×10^5 cells were seeded in 96 well plates and incubated for 24 hours. After which, cells were pre-treated with the drug compound for 1 hour, followed by 100 μM of 2′-3′ cGAMP for induction of the cGAS-STING pathway, and incubated for 24 hours. After which, cell suspension from each respective well was collected and for relative quantification of IRF activation via Lucia luciferase based luminescent assay via QUANTI-Luc™ reagent (Invivogen). 10 μL of the cell suspension obtained in each individual well was added to 50 μL of QUANTI-Luc™ Solution. […] Experiments were performed in biological triplicates, with data reported as the mean and standard deviation of 3 data points.

T1 sequence (Q86WV6 whole entry H232R): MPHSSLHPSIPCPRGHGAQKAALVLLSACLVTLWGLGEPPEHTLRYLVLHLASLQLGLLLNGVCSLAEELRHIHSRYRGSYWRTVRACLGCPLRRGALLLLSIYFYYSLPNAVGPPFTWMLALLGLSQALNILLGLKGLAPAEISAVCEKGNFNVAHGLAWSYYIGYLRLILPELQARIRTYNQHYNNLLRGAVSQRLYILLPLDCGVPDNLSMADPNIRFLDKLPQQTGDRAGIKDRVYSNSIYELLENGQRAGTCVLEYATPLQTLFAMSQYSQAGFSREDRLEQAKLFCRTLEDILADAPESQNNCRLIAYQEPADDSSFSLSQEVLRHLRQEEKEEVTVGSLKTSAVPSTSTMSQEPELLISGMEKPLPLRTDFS

STING binding (fraction of F-c-di-GMP probe bound, Fbound), in words (hSTING) | Molecule | other results
negatively impacted STING binding | CN1CCN(C(=O)c2ccc(-c3nc4ccc5[nH]ncc5c4c4c3CCC4)cc2)CC1 [Compound 24, (4-methylpiperazin-1-yl) (4-(3,8,9,10-tetrahydrocyclopenta[c]pyrazolo[4,3-f]quinolin-7-yl)phenyl)methanone] | –
reduced binding capabilities | CN1CCN(C(=O)c2ccc(-c3nc4ccc5[nH]ncc5c4c4c3CCCC4)cc2)CC1 [Compound 21, (4-methylpiperazin-1-yl) (4-(8,9,10,11-tetrahydro-3H-pyrazolo[4,3-a]phenanthridin-7-yl)phenyl)methanone] | –
reduced binding capabilities | Cn1cc(-c2nc3ccc4[nH]ncc4c3c3c2CCCC3)cn1 [Compound 20, 7-(1-Methyl-1H-pyrazol-4-yl)-8,9,10,11-tetrahydro-3H-pyrazolo[4,3-a]phenanthridine] | –
significant decrease in STING binding | c1cc(-c2nc3ccc4[nH]ncc4c3c3c2CCCC3)n[nH]1 [Compound 19, 7-(1H-pyrazol-3-yl)-8,9,10,11-tetrahydro-3H-pyrazolo[4,3-a]phenanthridine] | –
generally retained STING binding | CN1CCN(C(=O)c2ccc(-c3nc4ccc5[nH]ncc5c4c4c3CCCC4)c(F)c2)CC1 [Compound 28, (3-fluoro-4-(8,9,10,11-tetrahydro-3H-pyrazolo[4,3-a]phenanthridin-7-yl)phenyl) (4-methylpiperazin-1-yl)methanone] | –
negatively affected STING binding | (2-fluoro-4-(8,9,10,11-tetrahydro-3H-pyrazolo[4,3-a]phenanthridin-7-yl)phenyl) (4-methylpiperazin-1-yl)methanone [Compound 27] | –
significant decrease in STING binding | COc1cc2nc(-c3cn[nH]c3)c3c(c2cc1OC)CCCC3 [Compound 2, 2,3-Dimethoxy-6-(1H-pyrazol-4-yl)-7,8,9,10-tetrahydrophenanthridine] | –
negatively impacted STING binding | CN1CCN(C(=O)c2ccc(-c3nc4ccc5[nH]ncc5c4c4c3CCCCC4)cc2)CC1 [Compound 23] | –
negatively affected STING binding | CN1CCN(C(=O)c2ccc(-c3nc4c(F)cc5[nH]ncc5c4c4c3CCCC4)cc2)CC1 [Compound 26, (4-(5-fluoro-8,9,10,11-tetrahydro-3H-pyrazolo[4,3-a]phenanthridin-7-yl)phenyl) (4-methylpiperazin-1-yl)methanone] | –
high probe displacement | CCn1nc(C)cc1C(=O)Nc1nc2cc(C(N)=O)cc(OC)c2n1C/C=C/Cn1c(NC(=O)c2cc(C)nn2CC)nc2cc(C(N)=O)cc(OCCCN3CCOCC3)c21 [DIABZI-3, reference compound] | –
significant decrease in STING binding | c1n[nH]cc1-c1nc2ccc3c(c2c2c1CCCC2)OCO3 [Compound 3, 7-(1H-pyrazol-4-yl)-8,9,10,11-tetrahydro-[1,3]dioxolo[4,5-a]phenanthridine] | –
reduced STING binding | CCc1cc(-c2cn[nH]c2)nc2ccc3[nH]ncc3c12 [Compound 9, 9-Ethyl-7-(1H-pyrazol-4-yl)-3H-pyrazolo[4,3-f]quinoline] | –
poor STING binder | Cn1ncc2c3c4c(c(-c5cn[nH]c5)nc3ccc21)CCCC4 [Compound 7, 3-Methyl-7-(1H-pyrazol-4-yl)-8,9,10,11-tetrahydro-3H-pyrazolo[4,3-a]phenanthridine] | –
– | c1n[nH]cc1-c1nc2ccc3[nH]ncc3c2c2c1CCCC2 [HSD1077, 7-(1H-pyrazol-4-yl)-8,9,10,11-tetrahydro-3H-pyrazolo[4,3-a]phenanthridine] | type 1 interferon production on treatment with compound alone (agonism) (RAW ISG Blue cells; 24 hours, no cGAMP): did not induce type 1 interferon production; also recorded: non-significant changes in interferon expression levels; type 1 interferon expression after pre-treatment and cGAMP induction (RAW ISG Blue cells; pre-treatment (1 μM or lower) 2 hours, then 100 μM 2'-3' cGAMP 24 hours): can suppress type-1 interferon expression; also recorded: dose-dependent attenuation in type 1 interferon expression; also recorded: attenuated expression of type 1 interferon in a dose-dependent manner; concentration causing a noticeable decrease in interferon expression (RAW ISG Blue cells; pre-treatment before cGAMP): ≤ 20 nM; murine Interferon-β mRNA levels (RAW ISG Blue macrophages): dose-dependent reduction in murine Interferon-β levels; phospho-IRF3 level (Raw ISG cells): decreased levels; also recorded: attenuates; phospho-STING level (Raw ISG cells): decreased levels; also recorded: attenuates; type 1 interferon expression after pre-treatment and cGAMP stimulation (THP-1 dual cells): can suppress type-1 interferon expression; also recorded: reduced type 1 interferon expression in a dose-dependent manner; also recorded: attenuated expression of interferon in a dose-dependent manner
reduced binding capabilities | CC(=O)N1CCN(C(=O)c2ccc(-c3nc4ccc5[nH]ncc5c4c4c3CCCC4)cc2)CC1 [Compound 22, 1-(4-(4-(8,9,10,11-tetrahydro-3H-pyrazolo[4,3-a]phenanthridin-7-yl)benzoyl)piperazin-1-yl)ethan-1-one] | –
reduced STING binding | c1n[nH]cc1-c1nc2ccc3[nH]ncc3c2c2c1CCC2 [Compound 10] | –

Molecule | STING binding (fraction of F-c-di-GMP probe bound, Fbound), in words (hSTING) | other results
O=C1c2ccccc2C(=O)N1C1CCc2c(c(-c3cn[nH]c3)nc3ccc4[nH]ncc4c23)C1 (stereo not drawn) [Compound 16, 2-(7-(1H-pyrazol-4-yl)-8,9,10,11-tetrahydro-3H-pyrazolo[4,3-a]phenanthridin-9-yl)isoindoline-1,3-dione] | not well tolerated | –
7-(1H-pyrazol-4-yl)-8,9,10,11-tetrahydro-3H-imidazo[4,5-a]phenanthridine [Compound 17] | not well tolerated | –
